From PubChem BioAssay (NCI)
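Five concentrations, 48 hours, 96-well plates. TGI marks complete inhibition of growth.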

Tests used:
Experiment in all cases: growth of human tumour cells (NCI), 48 h
HOP-62 NSCLC = system: HOP-62 NSCLC
M19-MEL melanoma = system: M19-MEL melanoma
HCT-15 colon = system: HCT-15 colon
MOLT-4 leukemia = system: MOLT-4 leukemia
DMS 273 small cell lung = system: DMS 273 small cell lung
HCC-2998 colon = system: HCC-2998 colon
ACHN renal = system: ACHN renal
SF-295 CNS = system: SF-295 CNS
TK-10 renal = system: TK-10 renal
SK-MEL-28 melanoma = system: SK-MEL-28 melanoma
LOX IMVI melanoma = system: LOX IMVI melanoma
SK-MEL-5 melanoma = system: SK-MEL-5 melanoma
RPMI-8226 leukemia = system: RPMI-8226 leukemia
SK-MEL-2 melanoma = system: SK-MEL-2 melanoma
SF-268 CNS = system: SF-268 CNS
K-562 leukemia = system: K-562 leukemia
COLO 205 colon = system: COLO 205 colon
NCI-H226 lung = system: NCI-H226 lung
A549 NSCLC = system: A549 NSCLC
KM20L2 colon = system: KM20L2 colon
U251 CNS = system: U251 CNS
SW-620 colon = system: SW-620 colon
NCI-H522 lung = system: NCI-H522 lung
SNB-19 CNS = system: SNB-19 CNS
IGROV1 ovarian = system: IGROV1 ovarian
OVCAR-3 ovarian = system: OVCAR-3 ovarian
LXFL 529 NSCLC = system: LXFL 529 NSCLC
NCI-H23 lung = system: NCI-H23 lung
SNB-75 CNS = system: SNB-75 CNS
HCT-116 colon = system: HCT-116 colon
DLD-1 colon = system: DLD-1 colon
SNB-78 CNS = system: SNB-78 CNS
A498 renal = system: A498 renal
HOP-92 NSCLC = system: HOP-92 NSCLC
UO-31 renal = system: UO-31 renal
HOP-18 NSCLC = system: HOP-18 NSCLC
OVCAR-4 ovarian = system: OVCAR-4 ovarian
OVCAR-8 ovarian = system: OVCAR-8 ovarian
NCI-H460 lung = system: NCI-H460 lung
M14 melanoma = system: M14 melanoma
UACC-62 melanoma = system: UACC-62 melanoma
SK-OV-3 ovarian = system: SK-OV-3 ovarian
SF-539 CNS = system: SF-539 CNS
UACC-257 melanoma = system: UACC-257 melanoma
HL-60(TB) leukemia = system: HL-60(TB) leukemia
HT29 colon = system: HT29 colon
MALME-3M melanoma = system: MALME-3M melanoma
KM12 colon = system: KM12 colon
CAKI-1 renal = system: CAKI-1 renal
OVCAR-5 ovarian = system: OVCAR-5 ovarian
EKVX NSCLC = system: EKVX NSCLC
SN12C renal = system: SN12C renal
DMS 114 small cell lung = system: DMS 114 small cell lung
RXF-631 renal = system: RXF-631 renal
786-0 renal = system: 786-0 renal

Measured: TGI

Cc1cccc(C(C)(C)C)c1NC(=O)C(=O)Cc1nc2ccccc2s1
> 100 µM: all assays above
